Legend:
Assay in all cases: Post-emergence herbicidal action against harmful plants (greenhouse)
Format in all cases: in vivo
[1] = tested on: Xanthium strumarium (XANST)
[2] = tested on: Euphorbia heterophylla (EPHHL); settings: for Herbicidal efficacy: EPHHL 21 DAT
Description: (§1) Seeds of monocotyledonous and dicotyledonous weed and crop plants are laid out in sandy loam soil in wood-fibre pots, covered with soil and cultivated in a greenhouse under good growth conditions. 2 to 3 weeks after sowing, the test plants are treated at the one-leaf stage. The compounds of the invention, formulated in the form of wettable powders (WP) or as emulsion concentrates (EC), are then sprayed onto the green parts of the plants in the form of an aqueous suspension or emulsion at a water application rate equivalent to 600 to 800 l/ha, with addition of 0.2% wetting agent. After the test plants have been left to stand in the greenhouse under optimal growth conditions for about 3 weeks, the action of the preparations is assessed visually in comparison to untreated controls (herbicidal action in percent (%): 100% activity=the plants have died, 0% activity=like control plants). […] The tables below illustrate, in an illustrative manner, the post-emergence herbicidal action of the compounds of the invention, the herbicidal activity being stated in percent.
(§2) In the tables that follow, the abbreviations mean the following: • E: means the synergism value to be expected according to the Colby formula. • Δ SYN: means the difference between the actual and expected synergism value. • DAT: means days after treatment.

[3] = tested on: Xanthium strumarium (XANST); remark: listed apart in the source
Description: as §1, §2

Emex australis (EMEAU) = tested on: Emex australis (EMEAU)
Description: as §1, §2

[4] = tested on: Sorghum halepense (SORHA)
Description: as §1, §2

[5] = tested on: Brachiaria platyphylla (BRAPP)
Description: as §1, §2

[6] = tested on: Polygonum convolvulus (POLCO)
[7] = tested on: Pharbitis purpurea (PHBPU)
[8] = tested on: Erigeron bonariensis (ERIBO)
Description: as §1, with “[…],” for “left to stand in the greenhouse under optimal growth conditions for about 3 weeks,”
as §2

Cyperus iria (CYPIR) = tested on: Cyperus iria (CYPIR)
Description: as §1, with “[…],” for “left to stand in the greenhouse under optimal growth conditions for about 3 weeks,”
as §2

Setaria viridis (SETVI) = tested on: Setaria viridis (SETVI)
Description: as §1, with “[…],” for “left to stand in the greenhouse under optimal growth conditions for about 3 weeks,”
as §2

[9] = tested on: Abutilon theophrasti (ABUTH)
Description: as §1, with “[…],” for “left to stand in the greenhouse under optimal growth conditions for about 3 weeks,”
as §2

Solanum nigrum (SOLNI) = tested on: Solanum nigrum (SOLNI)
Description: as §1, with “[…],” for “left to stand in the greenhouse under optimal growth conditions for about 3 weeks,”
as §2

[10] = application rate 2 g a.i./ha, 21 DAT

SMILES: Cc1nnc(NC(=O)c2ccc(C(F)(F)F)c([S@+](C)[O-])c2Cl)o1 [I-5]
- Herbicidal efficacy [%] against XANST 10 DAT ([1]; application rate 0.5 g a.i./ha): 20%
- Herbicidal efficacy [%] against XANST 21 DAT ([1]; application rate 0.5 g a.i./ha, 21 DAT, table with flufenoximacil): 30%
- Herbicidal efficacy [%] against XANST 10 DAT ([1]; application rate 2 g a.i./ha): 30%
- Herbicidal efficacy ([2]; 0.5 g a.i./ha): 0%
- Herbicidal efficacy ([2]; 2 g a.i./ha): 10%
- Herbicidal efficacy [%] against EPHHL 21 DAT ([2]; application rate 0.5 g a.i./ha): 30%
- Herbicidal efficacy [%] against EPHHL 21 DAT ([2]; application rate 2 g a.i./ha): 40%
- Herbicidal efficacy [%] against XANST 21 DAT ([3]; application rate 0.5 g a.i./ha): 10%
- Herbicidal efficacy [%] against XANST 21 DAT ([3]; application rate 2 g a.i./ha): 20%
- Herbicidal efficacy (Emex australis (EMEAU); EMEAU 10 DAT, 0.5 g a.i./ha): 20%
- Herbicidal efficacy (Emex australis (EMEAU); EMEAU 10 DAT, 2 g a.i./ha): 20%
- Herbicidal efficacy (Emex australis (EMEAU); EMEAU 21 DAT, 0.5 g a.i./ha): 0%
- Herbicidal efficacy (Emex australis (EMEAU); EMEAU 21 DAT, 2 g a.i./ha): 10%
- Herbicidal efficacy [%] against EMEAU 10 DAT (Emex australis (EMEAU); application rate 0.5 g a.i./ha, 10 DAT): 30%
- Herbicidal efficacy [%] against EMEAU 21 DAT (Emex australis (EMEAU); application rate 0.5 g a.i./ha): 20%
- Herbicidal efficacy [%] against EMEAU 21 DAT (Emex australis (EMEAU); application rate 2 g a.i./ha): 88%
- Herbicidal efficacy [%] against SORHA 10 DAT ([4]; application rate 0.5 g a.i./ha): 0%
- Herbicidal efficacy [%] against SORHA 21 DAT ([4]; application rate 0.5 g a.i./ha): 0%
- Herbicidal efficacy [%] against SORHA 10 DAT ([4]; application rate 2 g a.i./ha): 20%
- Herbicidal efficacy [%] against SORHA 10 DAT ([4]; application rate 2 g a.i./ha, table with flufenoximacil): 90%
- Herbicidal efficacy [%] against SORHA 21 DAT ([4]; application rate 2 g a.i./ha): 10%
- Herbicidal efficacy ([5]; BRAPP 10 DAT, 0.5 g a.i./ha): 0%
- Herbicidal efficacy ([5]; BRAPP 10 DAT, 2 g a.i./ha): 30%
- Herbicidal efficacy ([5]; BRAPP 21 DAT, 0.5 g a.i./ha): 0%
- Herbicidal efficacy ([5]; BRAPP 21 DAT, 2 g a.i./ha): 0%
- Herbicidal efficacy ([6]; POLCO 10 DAT, 0.5 g a.i./ha): 0%
- Herbicidal efficacy ([6]; POLCO 10 DAT, 2 g a.i./ha): 0%
- Herbicidal efficacy ([6]; POLCO 21 DAT, 0.5 g a.i./ha): 0%
- Herbicidal efficacy ([6]; POLCO 21 DAT, 2 g a.i./ha): 0%
- Herbicidal efficacy [%] against POLCO 21 DAT [6, 10]: 30%
- Herbicidal efficacy ([7]; PHBPU 10 DAT, 0.5 g a.i./ha): 0%
- Herbicidal efficacy ([7]; PHBPU 10 DAT, 2 g a.i./ha): 20%
- Herbicidal efficacy ([7]; PHBPU 21 DAT, 0.5 g a.i./ha): 0%
- Herbicidal efficacy ([7]; PHBPU 21 DAT, 2 g a.i./ha): 0%
- Herbicidal efficacy [%] against PHBPU 21 DAT ([7]; application rate 0.5 g a.i./ha, 21 DAT): 40%
- Herbicidal efficacy ([8]; ERIBO 10 DAT, 0.5 g a.i./ha): 0%
- Herbicidal efficacy ([8]; ERIBO 10 DAT, 2 g a.i./ha): 10%
- Herbicidal efficacy ([8]; ERIBO 21 DAT, 0.5 g a.i./ha): 0%
- Herbicidal efficacy ([8]; ERIBO 21 DAT, 2 g a.i./ha): 0%
- Herbicidal efficacy [%] against ERIBO 21 DAT [8, 10]: 40%
- Herbicidal efficacy (Cyperus iria (CYPIR); CYPIR 10 DAT, 0.5 g a.i./ha): 50%
- Herbicidal efficacy (Cyperus iria (CYPIR); CYPIR 10 DAT, 2 g a.i./ha): 80%
- Herbicidal efficacy (Cyperus iria (CYPIR); CYPIR 21 DAT, 0.5 g a.i./ha): 40%
- Herbicidal efficacy (Cyperus iria (CYPIR); CYPIR 21 DAT, 2 g a.i./ha): 60%
- Herbicidal efficacy (Setaria viridis (SETVI); SETVI 10 DAT, 0.5 g a.i./ha): 20%
- Herbicidal efficacy (Setaria viridis (SETVI); SETVI 10 DAT, 2 g a.i./ha): 40%
- Herbicidal efficacy (Setaria viridis (SETVI); SETVI 21 DAT, 0.5 g a.i./ha): 10%
- Herbicidal efficacy (Setaria viridis (SETVI); SETVI 21 DAT, 2 g a.i./ha): 20%
- Herbicidal efficacy ([9]; ABUTH 10 DAT, 0.5 g a.i./ha): 20%
- Herbicidal efficacy ([9]; ABUTH 10 DAT, 2 g a.i./ha): 60%
- Herbicidal efficacy ([9]; ABUTH 21 DAT, 0.5 g a.i./ha): 10%
- Herbicidal efficacy ([9]; ABUTH 21 DAT, 2 g a.i./ha): 30%
- Herbicidal efficacy (Solanum nigrum (SOLNI); SOLNI 10 DAT, 0.5 g a.i./ha): 20%
- Herbicidal efficacy (Solanum nigrum (SOLNI); SOLNI 10 DAT, 2 g a.i./ha): 60%
- Herbicidal efficacy (Solanum nigrum (SOLNI); SOLNI 21 DAT, 0.5 g a.i./ha): 0%
- Herbicidal efficacy (Solanum nigrum (SOLNI); SOLNI 21 DAT, 2 g a.i./ha): 20%
- Herbicidal efficacy [%] against SOLNI 10 DAT (Solanum nigrum (SOLNI); application rate 0.5 g a.i./ha): 20%
- Herbicidal efficacy [%] against SOLNI 21 DAT (Solanum nigrum (SOLNI); application rate 0.5 g a.i./ha): 0%
- Herbicidal efficacy [%] against SOLNI 10 DAT (Solanum nigrum (SOLNI); application rate 2 g a.i./ha): 60%
- Herbicidal efficacy [%] against SOLNI 21 DAT (Solanum nigrum (SOLNI); application rate 2 g a.i./ha): 20%

SMILES: CCn1ncc(C(=O)c2ccc(S(C)(=O)=O)c(COCC(F)(F)F)c2Cl)c1OC(=O)c1cn(C)nc1C [fenpyrazone]
- Herbicidal efficacy [%] against XANST 10 DAT ([1]; application rate 20 g a.i./ha): 88%
- Herbicidal efficacy [%] against XANST 21 DAT ([3]; application rate 20 g a.i./ha): 70%
- Herbicidal efficacy (Emex australis (EMEAU); EMEAU 21 DAT, 20 g a.i./ha): 0%
- Herbicidal efficacy [%] against SORHA 10 DAT ([4]; application rate 5 g a.i./ha): 20%
- Herbicidal efficacy [%] against SORHA 21 DAT ([4]; application rate 5 g a.i./ha): 10%
- Herbicidal efficacy [%] against SORHA 10 DAT ([4]; application rate 20 g a.i./ha): 30%
- Herbicidal efficacy [%] against SORHA 21 DAT ([4]; application rate 20 g a.i./ha): 20%
- Herbicidal efficacy ([5]; BRAPP 10 DAT, 5 g a.i./ha): 30%
- Herbicidal efficacy ([5]; BRAPP 10 DAT, 20 g a.i./ha): 75%
- Herbicidal efficacy ([5]; BRAPP 21 DAT, 5 g a.i./ha): 10%
- Herbicidal efficacy ([5]; BRAPP 21 DAT, 20 g a.i./ha): 20%
- Herbicidal efficacy ([6]; POLCO 10 DAT, 5 g a.i./ha): 0%
- Herbicidal efficacy ([6]; POLCO 21 DAT, 5 g a.i./ha): 0%
- Herbicidal efficacy ([6]; POLCO 21 DAT, 20 g a.i./ha): 10%
- Herbicidal efficacy ([7]; PHBPU 10 DAT, 5 g a.i./ha): 0%
- Herbicidal efficacy ([7]; PHBPU 21 DAT, 5 g a.i./ha): 0%
- Herbicidal efficacy ([8]; ERIBO 21 DAT, 5 g a.i./ha): 80%
- Herbicidal efficacy ([8]; ERIBO 21 DAT, 20 g a.i./ha): 80%
- Herbicidal efficacy (Cyperus iria (CYPIR); CYPIR 10 DAT, 5 g a.i./ha): 30%
- Herbicidal efficacy (Cyperus iria (CYPIR); CYPIR 10 DAT, 20 g a.i./ha): 20%
- Herbicidal efficacy (Cyperus iria (CYPIR); CYPIR 21 DAT, 5 g a.i./ha): 30%
- Herbicidal efficacy (Cyperus iria (CYPIR); CYPIR 21 DAT, 20 g a.i./ha): 10%
- Herbicidal efficacy (Setaria viridis (SETVI); SETVI 10 DAT, 5 g a.i./ha): 30%
- Herbicidal efficacy (Setaria viridis (SETVI); SETVI 10 DAT, 20 g a.i./ha): 50%
- Herbicidal efficacy (Setaria viridis (SETVI); SETVI 21 DAT, 5 g a.i./ha): 20%
- Herbicidal efficacy (Setaria viridis (SETVI); SETVI 21 DAT, 20 g a.i./ha): 20%
- Herbicidal efficacy ([9]; ABUTH 21 DAT, 20 g a.i./ha): 30%

Source: patent US20260068885A1, “HERBICIDAL COMPOSITIONS” (BAYER AKTIENGESELLSCHAFT, priority 2022, published 2026)
